Twelve molecules from ChEMBL document CHEMBL1201862, “PubChem BioAssay data set” (2004) can be followed below.

Test systems include HOP-62; NCI-H522; RXF 393; SNB-19; SK-OV-3; EKVX; UO-31; OVCAR-5; M14; LOX IMVI; U-251; OVCAR-4; UACC-62; SF-295; CAKI-1; K562; MDA-MB-231; T47D; MCF7; BT-549.
Holding throughout (test): NCI-60 cell line screen, 48 h

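Where inhibition never reached the appropriate level, the endpoint shown equals the highest concentration tested. Otherwise, values were interpolated linearly from a five-concentration, 48-hour dose response in 96-well plates. GI50 is the concentration that inhibits growth by half.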 Activity calls are given as the source filed them. Rule as the data show it: active = GI50 up to about 1.1 µM and inactive = higher.

As for `CCCCCCCCCC(=O)CC(=O)c1c(O)cccc1O`, the GI50 with HOP-62 is 85.7 µM (inactive); in the assay on NCI-H522 it was 27.8 µM (inactive); with RXF 393, 27 µM (inactive); with SNB-19, 53.1 µM (inactive); with SK-OV-3 it was 20.5 µM (inactive); in the assay on EKVX, 29.2 µM (inactive). In addition, the GI50 in the assay with UO-31 was 35.1 µM (inactive); in the assay on OVCAR-5 it was 22.9 µM (inactive); in the assay on M14 it was 22 µM (inactive); in the assay with LOX IMVI, 21.3 µM (inactive); in the assay with U-251 it was 24.9 µM (inactive); in the assay on OVCAR-4 it was 49.7 µM (inactive). The GI50 in the assay with UACC-62 is 33.4 µM (inactive); with SF-295, 34.1 µM (inactive); in the assay on CAKI-1 it was 33.2 µM (inactive); in the assay with K562, 27.7 µM (inactive).
Turning to `CN(N=O)C(=O)NC(CCCCNC(=O)OCc1ccccc1)C(=O)OCc1ccccc1` (stereo not drawn), the GI50 in the assay on HOP-62 was 28.5 µM (inactive); in the assay on NCI-H522, 13.1 µM (inactive); with RXF 393 it was 33.7 µM (inactive); with SNB-19 it was > 100 µM (inactive); in the assay on SK-OV-3, > 100 µM (inactive); in the assay on EKVX it was > 100 µM (inactive). The GI50 with UO-31 is 20.2 µM (inactive); in the assay with OVCAR-5 it was > 100 µM (inactive); with M14, 19.3 µM (inactive); in the assay on LOX IMVI it was 17.4 µM (inactive); in the assay on U-251, 53.3 µM (inactive); with OVCAR-4, 71.1 µM (inactive). Also, the GI50 with UACC-62 is 13.7 µM (inactive); in the assay with SF-295, 32.4 µM (inactive); with CAKI-1, 21.4 µM (inactive); in the assay with K562 it was 48.8 µM (inactive).
With `O=C(/C=C/c1ccc(OCC(=O)N2CCN(c3ccccc3)CC2)cc1)c1ccccc1`, the GI50 in the assay on HOP-62 is 32.8 µM (inactive); in the assay with NCI-H522, 3.6 µM (inactive); in the assay with RXF 393, 7.85 µM (inactive); in the assay on SNB-19, 20.1 µM (inactive); in the assay on SK-OV-3, 38.1 µM (inactive); with EKVX it was 34.7 µM (inactive). Also, the GI50 in the assay on UO-31 is 15.2 µM (inactive); in the assay on OVCAR-5, 48.8 µM (inactive); in the assay on M14, 29.8 µM (inactive); with LOX IMVI, 3.68 µM (inactive); with U-251, 7.14 µM (inactive); with OVCAR-4, 14.3 µM (inactive). Moreover, the GI50 was 17.8 µM (inactive) with UACC-62, 23.3 µM (inactive) in the assay on SF-295, 93.3 µM (inactive) in the assay with CAKI-1 and 3.18 µM (inactive) with K562.
In the case of `COC(=O)C1(Cc2ccccc2)Cc2ccccc2C1=O` (stereo not drawn), the GI50 was 72.1 µM (inactive) with HOP-62; > 100 µM (inactive) in the assay on SK-OV-3; 30.3 µM (inactive) with EKVX; 23.3 µM (inactive) with UO-31; > 100 µM (inactive) in the assay with OVCAR-5; 32.5 µM (inactive) in the assay on M14. Besides, the GI50 with MDA-MB-231 was 83.6 µM (inactive); in the assay on LOX IMVI, 43.7 µM (inactive); in the assay with U-251, 27.7 µM (inactive); in the assay with OVCAR-4, 25.4 µM (inactive); with UACC-62, 67.3 µM (inactive); with SF-295, 66.8 µM (inactive). Moreover, the GI50 is 43.1 µM (inactive) with T47D, 42.1 µM (inactive) in the assay on MCF7, 83 µM (inactive) in the assay on CAKI-1 and 35 µM (inactive) in the assay with K562.
For `CNC(=S)/N=C(\N)N(C)C`, the GI50 in the assay on HOP-62, with NCI-H522, in the assay on RXF 393, in the assay with SNB-19, in the assay with SK-OV-3 and with EKVX was > 100 µM (inactive) each time. For the same molecule, the GI50 in the assay with UO-31 is > 100 µM (inactive); in the assay on M14 it was > 100 µM (inactive); in the assay with LOX IMVI, > 100 µM (inactive); in the assay with U-251 it was > 100 µM (inactive); in the assay on OVCAR-4 it was > 10 µM (inactive); in the assay with UACC-62, > 100 µM (inactive). The GI50 in the assay on SF-295, in the assay on CAKI-1 and in the assay on K562 was > 100 µM (inactive) in each case.
Regarding `CC(C)(C)c1cc2c(O)c(c1)Cc1cc(C(C)(C)C)cc(c1O)Cc1cc(C(C)(C)C)cc(c1O)Cc1cc(C(C)(C)C)cc(c1O)Cc1cc(C(C)(C)C)cc(c1O)Cc1cc(C(C)(C)C)cc(c1O)Cc1cc(C(C)(C)C)cc(c1O)Cc1cc(C(C)(C)C)cc(c1O)C2`, the GI50 in the assay with HOP-62, in the assay on NCI-H522, in the assay on RXF 393, with SNB-19, in the assay on SK-OV-3 and in the assay with EKVX was > 50 µM (inactive) in each case. Further, the GI50 with UO-31, in the assay with OVCAR-5, with M14, in the assay on MDA-MB-231, in the assay with U-251 and with OVCAR-4 was > 50 µM (inactive) in each case. The GI50 in the assay on UACC-62, in the assay with SF-295, in the assay on T47D, with MCF7, with CAKI-1 and in the assay with K562 was > 50 µM (inactive) throughout.
Turning to `Cc1ccc(N2CCc3c(C)c(C#N)c4nc5ccccc5n4c32)cc1`, the GI50 was 36.6 µM (inactive) with HOP-62; 9.04 µM (inactive) with NCI-H522; 32.1 µM (inactive) in the assay on RXF 393; 37.4 µM (inactive) in the assay on SNB-19; 59.3 µM (inactive) with SK-OV-3; > 100 µM (inactive) in the assay with UO-31. The GI50 in the assay with OVCAR-5 was > 100 µM (inactive); with LOX IMVI, > 100 µM (inactive); in the assay with U-251, 38.8 µM (inactive); with BT-549, > 100 µM (inactive); in the assay on OVCAR-4, > 100 µM (inactive); in the assay on UACC-62, 27 µM (inactive). For the same molecule, the GI50 is 41.6 µM (inactive) in the assay with SF-295, > 100 µM (inactive) with MCF7 and 70.6 µM (inactive) with CAKI-1.
For the molecule `CCOC(=O)C1=C(C)N(NC(=O)Nc2ccccc2)C(=O)C1=P(c1ccccc1)(c1ccccc1)c1ccccc1`, the GI50 is > 100 µM (inactive) with HOP-62; 19.4 µM (inactive) in the assay with NCI-H522; 28 µM (inactive) in the assay on RXF 393; > 100 µM (inactive) in the assay on SNB-19; > 100 µM (inactive) in the assay on SK-OV-3; 54.3 µM (inactive) in the assay on EKVX. Moreover, the GI50 is 74.6 µM (inactive) in the assay on UO-31; > 100 µM (inactive) with OVCAR-5; 32.4 µM (inactive) in the assay on M14; 41.2 µM (inactive) with LOX IMVI; 33.9 µM (inactive) in the assay on U-251; 35.2 µM (inactive) in the assay with OVCAR-4. The GI50 was 25.6 µM (inactive) in the assay with UACC-62, 48.4 µM (inactive) with SF-295, 44.7 µM (inactive) in the assay on CAKI-1 and 26.6 µM (inactive) in the assay with K562.
With `O=C1[C@H](O)[C@@H]2CCC[C@@]23CCCN13`, the GI50 in the assay on HOP-62, in the assay with NCI-H522, in the assay with RXF 393, in the assay on SK-OV-3, in the assay on EKVX and in the assay with UO-31 was > 100 µM (inactive) each time. The GI50 with OVCAR-5, in the assay with M14, in the assay with LOX IMVI, in the assay on U-251, with UACC-62 and in the assay with SF-295 was > 100 µM (inactive) throughout. The GI50 with T47D, in the assay on MCF7, in the assay on CAKI-1 and with K562 was > 100 µM (inactive) throughout.
For the molecule `Nc1ccc(/N=N/c2ccc(-c3ccc(/N=N/c4c(S(=O)(=O)O)cc5cc(S(=O)(=O)O)c(/N=N/c6ccc([N+](=O)[O-])cc6)c(N)c5c4O)cc3)cc2)c2cc(S(=O)(=O)O)ccc12`, the GI50 in the assay with HOP-62, in the assay on NCI-H522, in the assay with RXF 393, in the assay on SNB-19, in the assay with SK-OV-3 and with EKVX was > 100 µM (inactive) in each case. Further, the GI50 with UO-31, with OVCAR-5, in the assay on M14, in the assay on LOX IMVI, with U-251 and in the assay with OVCAR-4 was > 100 µM (inactive) throughout. Further, the GI50 with UACC-62 was > 100 µM (inactive); in the assay with SF-295, 84.5 µM (inactive); in the assay on CAKI-1, > 100 µM (inactive); in the assay on K562 it was > 100 µM (inactive).
As for `c1cc(C2O[C@H]3CCCN3[C@@H]2c2ccncc2)ccn1` (stereo partly drawn), the GI50 in the assay on HOP-62, with NCI-H522, in the assay on RXF 393, with SNB-19, in the assay on SK-OV-3 and in the assay on EKVX was > 100 µM (inactive) throughout. Also, the GI50 in the assay on UO-31, in the assay on OVCAR-5, in the assay with M14, with LOX IMVI, in the assay on U-251 and with OVCAR-4 was > 100 µM (inactive) in each case. Besides, the GI50 in the assay on UACC-62, in the assay on SF-295, in the assay with CAKI-1 and in the assay on K562 was > 100 µM (inactive) in each case.
Take `COc1cc([C@@H]2c3cc4c(c(O)c3C[C@H]3COC(=O)[C@@H]32)OCO4)cc(OC)c1O`: the GI50 was < 0.02 µM (active) with HOP-62; 0.233 µM (active) in the assay on RXF 393; 0.796 µM (active) in the assay on SNB-19; 0.0351 µM (active) with EKVX; < 0.02 µM (active) with UO-31; 29.2 µM (inactive) with OVCAR-5. In addition, the GI50 with M14 is 0.00278 µM (active); in the assay on UACC-62, < 0.02 µM (active); with SF-295, < 0.02 µM (active); in the assay with MCF7, 0.0377 µM (active); in the assay on CAKI-1, < 0.02 µM (active); in the assay with K562, 0.0243 µM (active).
